Test results reported in PMC8611036, “An integrated method for optimized identification of effective natural inhibitors against SARS-CoV-2 3CLpro” (Scientific Reports, 2021).
Where two headings read alike, the source gives them in different places.

Columns and labels:
SARS-CoV 3CLpro [1] = type: biochemical; conditions: activity class by pIC50 threshold 6
SARS-CoV-2 3CLpro [2] = target: T1, SARS-CoV-2 3CLpro (Severe acute respiratory syndrome coronavirus 2, UniProt P0DTD1); conditions: cited from earlier work; for IC50: unit not printed (pIC50 corresponds to µM)
SARS-CoV-2 3CLpro [3] = target: T1, SARS-CoV-2 3CLpro; test: Literature-collected IC50 of SARS-CoV-2 3CLpro inhibitors (test set); type: biochemical; conditions: class from pIC50 of the literature IC50
SARS-CoV 3CLpro [4] = conditions: SARS-CoV 3CLpro inhibitors (training set), ref: per compound, cited from earlier work
[5] = from literature IC50, ref Zhu, Wei et al. ACS pharmacology & translational science vol. 3,5 (2020): 1008-1016
[6] = ref Zhu, Wei et al. ACS pharmacology & translational science vol. 3,5 (2020): 1008-1016
[7] = from literature IC50, ref Jo, Seri et al. Journal of enzyme inhibition and medicinal chemistry vol. 35,1 (2020): 1539-1544
[8] = ref Jo, Seri et al. Journal of enzyme inhibition and medicinal chemistry vol. 35,1 (2020): 1539-1544

SMILES	Inact.(<6)/Act.(>=6) (SARS-CoV 3CLpro [1])	pIC50 (SARS-CoV-2 3CLpro [2]; [5])	pIC50 (SARS-CoV-2 3CLpro [2]; test set (SARS-CoV-2 3CLpro inhibitors), collected from literature)	IC50 (SARS-CoV-2 3CLpro [2]; [6]) [µM]	Inact.(<6)/Act.(>=6) (SARS-CoV-2 3CLpro [3])	pIC50 (SARS-CoV 3CLpro [4]; from literature IC50)	IC50 (SARS-CoV 3CLpro [4]; literature values) [µM]	pIC50 (SARS-CoV-2 3CLpro [2]; [7])	IC50 (SARS-CoV-2 3CLpro [2]; [8]) [µM]
O=C1/C(=C\c2ccc(-c3ccccc3)o2)C(c2ccccc2)=NN1c1ccccc1 [CMP10]	Inact. (Inact.(<6))	4.652	4.652	22.3	Inact. (Inact.(<6))	–	–	–	–
O=C(O)c1ccccc1-c1ccc(/C=C2\C(=O)N(c3ccccc3)N=C2c2ccccc2)o1 [CMP13, reference compound]	Inact. (Inact.(<6))	5.4828	–	3.29	Inact. (Inact.(<6))	4.3851	41.2	–	–
O=c1c(O)c(-c2ccc(O)cc2)oc2c(O)c(O)cc(O)c12 [CMP83]	–	–	–	–	Inact. (Inact.(<6))	–	–	4.268	53.9
COc1ccc(-c2cc(=O)c3c(O)c(OC)c(OC4OC(COC5OC(C)C(O)C(O)C5O)C(O)C(O)C4O)cc3o2)cc1 (centres unmarked) [CMP84]	–	–	–	–	Inact. (Inact.(<6))	–	–	4.287	51.6
